Experimental data as given in ChEMBL document CHEMBL1201862, “PubChem BioAssay data set” (2004).
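Growth conditions: 96-well plates. Treatment: test compound, 48 hours, 5 concentrations. Analysis: linear interpolation between bracketing concentrations; unreached endpoints set to highest concentration. The concentration for 50% growth inhibition is given as GI50.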 Calls of active or inactive are those of the source. Rule as the data show it: active = GI50 up to about 1.1 µM and inactive = higher.

Experiments:
Assay in all cases: NCI-60 cell line screen, 48 h
SNB-78 = tested on: SNB-78
KM-20L2 = tested on: KM-20L2
XF498 = tested on: XF498
RXF 631 = tested on: RXF 631
LXFL 529 = tested on: LXFL 529
DMS-273 = tested on: DMS-273
HOP-18 = tested on: HOP-18
DLD-1 = tested on: DLD-1
DMS-114 = tested on: DMS-114

Compound | GI50 (SNB-78) | GI50 (KM-20L2) | GI50 (XF498) | GI50 (RXF 631) | GI50 (LXFL 529) | GI50 (DMS-273) | GI50 (HOP-18) | GI50 (DLD-1) | GI50 (DMS-114)
CC(=O)Nc1ccccc1[S+]([O-])c1ccccc1 (stereo not given) | > 100 µM (inactive) | > 100 µM (inactive) | > 100 µM (inactive) | > 100 µM (inactive) | > 100 µM (inactive) | > 100 µM (inactive) | > 100 µM (inactive) | > 100 µM (inactive) | > 100 µM (inactive)
CN(C)CCNC(=O)c1cccc2c1nc(-c1ccccc1)c1ccccc12 | 10.4 µM (inactive) |  |  | 1.05 µM (active) |  | 2.91 µM (inactive) | 14.7 µM (inactive) | 2.33 µM (inactive) | 
Cc1ccc(S(=O)(=O)n2cc(/C=C/C#N)c(/C=C/C#N)c2)cc1 |  | 93.3 µM (inactive) | > 100 µM (inactive) | > 100 µM (inactive) | > 100 µM (inactive) | 49.5 µM (inactive) | 20.8 µM (inactive) |  | 22.6 µM (inactive)
O=C(CCc1nnc2s/c(=C\c3ccc([N+](=O)[O-])cc3)c(=O)n12)Nc1ccc(Cl)c(Cl)c1 | 25.4 µM (inactive) | 47.9 µM (inactive) | 27.6 µM (inactive) | 49.9 µM (inactive) | 13.4 µM (inactive) | 24.5 µM (inactive) |  | 19.3 µM (inactive) | 17.3 µM (inactive)
O=C(O)c1cc(-c2ccccc2O)nc2ccccc12 | > 100 µM (inactive) | > 100 µM (inactive) | > 100 µM (inactive) |  | > 100 µM (inactive) |  | 26.2 µM (inactive) | > 100 µM (inactive) | > 100 µM (inactive)
CCc1cc(Cc2cc(CC)c(NC(=O)C3=CC(=O)CC(c4ccc(OC)cc4)O3)c(CC)c2Cl)c(Cl)c(CC)c1NC(=O)C1=CC(=O)CC(c2ccc(OC)cc2)O1 (stereo not given) | 28.2 µM (inactive) | 26.7 µM (inactive) |  | 89.7 µM (inactive) | 18 µM (inactive) | 21.7 µM (inactive) | 22.1 µM (inactive) | 18.4 µM (inactive) | 17.7 µM (inactive)
O=C(Nc1cccc(NC(=O)c2cc(=O)c3ccccc3o2)n1)c1cc(=O)c2ccccc2o1 | > 100 µM (inactive) | 68.4 µM (inactive) |  | 51.5 µM (inactive) | 7.69 µM (inactive) | 9.64 µM (inactive) |  | 75.9 µM (inactive) | 19.2 µM (inactive)
CCC1=C(CC2NCCc3ccccc32)CC2c3cc(OC)c(OC)cc3CCN2C1 (stereo not given) | 1.44 µM (inactive) | 0.891 µM (active) | 0.8 µM (active) | 1.45 µM (inactive) | 0.995 µM (active) | 0.618 µM (active) |  | 2.49 µM (inactive) | 
C#CCN(C)C(=O)N(CC#C)N=O | > 100 µM (inactive) | > 100 µM (inactive) |  | > 100 µM (inactive) | > 100 µM (inactive) | > 100 µM (inactive) | > 100 µM (inactive) | > 100 µM (inactive) | > 100 µM (inactive)
O=c1c2ccccc2n2nnc3ccc(NCCNCCO)c1c32 | 7.71 µM (inactive) | 1.29 µM (inactive) | 5.7 µM (inactive) | 1.85 µM (inactive) | 2.42 µM (inactive) | 2.62 µM (inactive) | 0.183 µM (active) | 2.19 µM (inactive) | 3.2 µM (inactive)
N#CC(/C(=N/NC(=O)C(=O)NN)C(=O)Nc1nc([N+](=O)[O-])cs1)c1ccc(Cl)cc1 (stereo not given) | > 100 µM (inactive) | > 100 µM (inactive) | > 100 µM (inactive) |  | > 100 µM (inactive) |  |  | > 100 µM (inactive) | > 100 µM (inactive)
CC(=O)O[C@H]1CCN2C(=O)C=CC(OCc3ccccc3)C12 (stereo not given in full) | > 100 µM (inactive) | > 100 µM (inactive) | > 100 µM (inactive) |  | > 100 µM (inactive) | > 100 µM (inactive) | > 100 µM (inactive) | > 100 µM (inactive) | > 100 µM (inactive)
O=C(c1ccc2c3c(ccc(C(=O)C(F)(F)F)c13)CC2)C(F)(F)F | > 100 µM (inactive) | 35.2 µM (inactive) | 9.31 µM (inactive) |  | 40.3 µM (inactive) | 27.9 µM (inactive) | 53.2 µM (inactive) | 88.1 µM (inactive) | 41.4 µM (inactive)
CC(C)(CN1CCCCC1)C(=O)/C=C/c1ccccc1 | 22.5 µM (inactive) | 10.3 µM (inactive) | 14.7 µM (inactive) | 21.1 µM (inactive) | 16.9 µM (inactive) | 13.5 µM (inactive) |  | 13.7 µM (inactive) | 14.4 µM (inactive)
COc1ccc(CNc2nc3ccccc3nc2-c2cccs2)cc1OC | 82.8 µM (inactive) | 68.4 µM (inactive) | 16 µM (inactive) | 29.7 µM (inactive) | 15.7 µM (inactive) | 50.5 µM (inactive) | > 100 µM (inactive) |  | 
Cc1ccccc1NC(=O)C(=O)C(c1cnc2ccc([N+](=O)[O-])cc2n1)[N+](=O)[O-] (stereo not given) | > 100 µM (inactive) | > 100 µM (inactive) |  | 70.3 µM (inactive) |  | 44.5 µM (inactive) | > 100 µM (inactive) | > 100 µM (inactive) | 43 µM (inactive)
NC(=O)c1cccc(C2OC(COP(=O)(O)O)C(O)C2O)c1 (stereo not given) | 43.7 µM (inactive) | > 50 µM (inactive) | 14.7 µM (inactive) |  | > 50 µM (inactive) | 48 µM (inactive) |  | 36.6 µM (inactive) | 
Oc1ccc(O)c(-n2cccn2)c1 | 58.5 µM (inactive) | > 100 µM (inactive) | > 100 µM (inactive) | 50 µM (inactive) | 20.9 µM (inactive) | 75.5 µM (inactive) |  | 63 µM (inactive) | 29.6 µM (inactive)
CCOC(=O)C(=O)Nc1nc2c(OCC)cccc2s1 | > 100 µM (inactive) | > 100 µM (inactive) |  | > 100 µM (inactive) | > 100 µM (inactive) | > 100 µM (inactive) | > 100 µM (inactive) | > 100 µM (inactive) | > 100 µM (inactive)
CCOC(=O)CC1NC(=O)CS1 (stereo not given) | > 100 µM (inactive) | > 100 µM (inactive) |  | > 100 µM (inactive) | > 100 µM (inactive) | 37.7 µM (inactive) | > 100 µM (inactive) | 42.5 µM (inactive) | 25.1 µM (inactive)
CC(C)(C)OC(=O)N1N=NC2C1C1CC(OCc3ccccc3)(OCc3ccccc3)C2O1 (stereo not given) | 43.7 µM (inactive) | > 100 µM (inactive) | 15.9 µM (inactive) | > 100 µM (inactive) | 16.4 µM (inactive) | 52.2 µM (inactive) | 35.9 µM (inactive) | 26.1 µM (inactive) | 17.7 µM (inactive)
CS(=O)(=O)CSCSSCS(C)(=O)=O | 49.4 µM (inactive) | 55.8 µM (inactive) | 32 µM (inactive) | 32 µM (inactive) | 18.1 µM (inactive) | 25.9 µM (inactive) | 37.6 µM (inactive) | 30 µM (inactive) | 27.3 µM (inactive)
O=C(c1ccccc1)C(c1ccccc1)C1(O)C(=O)Nc2ccccc21 (stereo not given) | > 100 µM (inactive) | > 100 µM (inactive) | > 100 µM (inactive) | > 100 µM (inactive) | > 100 µM (inactive) | > 100 µM (inactive) |  | > 100 µM (inactive) | > 100 µM (inactive)
